For series [1], the target named is Sodium channel protein type 5 subunit alpha (Homo sapiens, UniProt Q14524). Nature of the series: Inhibition of Nav1.5 (unknown origin).
Series [2] deals with Cytochrome P450 2D6 (Homo sapiens, UniProt P10635). Nature of the series: Inhibition of CYP2D6 (unknown origin). The class given is ADME.
Series [3] addresses Cytochrome P450 3A4 (Homo sapiens, UniProt P08684). Kind of series: Inhibition of CYP3A4 (unknown origin). The class given is ADME.
The target in series [4] is Voltage-dependent L-type calcium channel subunit alpha-1C (Homo sapiens, UniProt Q13936). Kind of series: Inhibition of Cav1.2 (unknown origin).
For series [5], the target named is Cytochrome P450 2C9 (Homo sapiens, UniProt P11712). Kind of series: Inhibition of CYP2C9 (unknown origin). The class given is ADME.
Series [6] deals with MDR1. Kind of series: Apparent permeability in pig LLC-PK1 cells transfected with MDR1. The class given is ADME, cell-based, Sus scrofa.
The target of series [7] is T1, Beta-hexosaminidase subunit beta (Homo sapiens, UniProt P07686).
T1 sequence (P07686 whole entry): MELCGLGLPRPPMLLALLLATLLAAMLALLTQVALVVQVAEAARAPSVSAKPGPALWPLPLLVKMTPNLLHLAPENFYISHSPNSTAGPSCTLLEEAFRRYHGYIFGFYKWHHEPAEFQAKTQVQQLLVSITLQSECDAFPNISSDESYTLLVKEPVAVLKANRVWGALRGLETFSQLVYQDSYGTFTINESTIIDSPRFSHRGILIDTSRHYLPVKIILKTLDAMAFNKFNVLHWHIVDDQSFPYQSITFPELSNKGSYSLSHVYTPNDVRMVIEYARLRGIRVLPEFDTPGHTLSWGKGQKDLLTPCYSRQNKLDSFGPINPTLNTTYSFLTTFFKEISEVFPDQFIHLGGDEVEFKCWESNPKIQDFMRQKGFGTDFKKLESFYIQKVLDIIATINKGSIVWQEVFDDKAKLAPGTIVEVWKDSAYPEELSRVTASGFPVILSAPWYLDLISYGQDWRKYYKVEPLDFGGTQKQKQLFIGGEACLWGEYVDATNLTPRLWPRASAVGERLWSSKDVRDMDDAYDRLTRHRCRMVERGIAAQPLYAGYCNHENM
Kind of series: Inhibition of human beta hexosaminidase assessed as inhibitory constant using 4-methylumbelliferyl N-acetyl-beta-D-glucosaminide dihydrate as substrate measured every 60 sec for 45 mins by fluorescence spectrophotometry.

Series [8] deals with T2, Nuclear receptor subfamily 1 group I member 2 (Homo sapiens, UniProt O75469).
T2 sequence (O75469 whole entry): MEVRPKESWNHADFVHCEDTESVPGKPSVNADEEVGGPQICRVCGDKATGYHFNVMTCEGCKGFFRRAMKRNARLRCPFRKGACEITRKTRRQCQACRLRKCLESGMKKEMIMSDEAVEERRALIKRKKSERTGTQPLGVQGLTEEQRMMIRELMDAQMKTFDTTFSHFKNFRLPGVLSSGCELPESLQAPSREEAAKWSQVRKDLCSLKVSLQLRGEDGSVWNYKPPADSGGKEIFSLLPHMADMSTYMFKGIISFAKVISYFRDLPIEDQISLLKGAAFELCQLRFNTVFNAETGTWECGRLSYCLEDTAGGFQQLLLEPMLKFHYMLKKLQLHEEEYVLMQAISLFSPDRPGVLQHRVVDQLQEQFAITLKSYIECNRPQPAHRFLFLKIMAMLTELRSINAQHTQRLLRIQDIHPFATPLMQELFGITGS
Nature of the series: Activation of PXR (unknown origin) assessed as CYP3A4 induction.

Series [9] concerns the target Voltage-gated inwardly rectifying potassium channel KCNH2 (Homo sapiens, UniProt Q12809). Nature of the series: Displacement of MK-0499 from human ERG.
In series [10] the target is T3, Protein O-GlcNAcase (Homo sapiens, UniProt O60502).
T3 sequence (O60502 whole entry): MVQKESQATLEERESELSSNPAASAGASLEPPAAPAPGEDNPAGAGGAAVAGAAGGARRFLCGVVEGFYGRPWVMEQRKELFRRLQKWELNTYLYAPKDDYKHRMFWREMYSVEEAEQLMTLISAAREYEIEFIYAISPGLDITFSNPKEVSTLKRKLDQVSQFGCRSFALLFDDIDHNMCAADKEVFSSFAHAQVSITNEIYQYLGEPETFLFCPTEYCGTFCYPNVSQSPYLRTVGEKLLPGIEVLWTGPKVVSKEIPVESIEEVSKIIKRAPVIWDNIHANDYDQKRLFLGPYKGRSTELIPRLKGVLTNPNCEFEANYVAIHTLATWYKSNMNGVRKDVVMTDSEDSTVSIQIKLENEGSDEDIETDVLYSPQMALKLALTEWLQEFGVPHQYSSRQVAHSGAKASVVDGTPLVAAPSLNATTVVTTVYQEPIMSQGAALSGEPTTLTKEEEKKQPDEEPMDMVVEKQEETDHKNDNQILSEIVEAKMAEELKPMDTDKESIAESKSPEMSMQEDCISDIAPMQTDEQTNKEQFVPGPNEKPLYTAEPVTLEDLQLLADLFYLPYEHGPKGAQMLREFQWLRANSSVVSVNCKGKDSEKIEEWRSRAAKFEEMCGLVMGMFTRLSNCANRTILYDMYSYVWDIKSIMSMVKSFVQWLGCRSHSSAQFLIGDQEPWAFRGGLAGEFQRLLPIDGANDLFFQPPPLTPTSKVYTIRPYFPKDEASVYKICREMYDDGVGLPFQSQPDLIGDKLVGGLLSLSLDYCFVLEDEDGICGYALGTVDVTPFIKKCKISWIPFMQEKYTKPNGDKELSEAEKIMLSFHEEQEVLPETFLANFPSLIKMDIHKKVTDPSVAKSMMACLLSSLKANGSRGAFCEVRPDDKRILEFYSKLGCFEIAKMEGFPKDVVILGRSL
Nature of the series: Inhibition of recombinant human OGA.

Chain of Cytochrome P450 2C9 (P11712 whole entry): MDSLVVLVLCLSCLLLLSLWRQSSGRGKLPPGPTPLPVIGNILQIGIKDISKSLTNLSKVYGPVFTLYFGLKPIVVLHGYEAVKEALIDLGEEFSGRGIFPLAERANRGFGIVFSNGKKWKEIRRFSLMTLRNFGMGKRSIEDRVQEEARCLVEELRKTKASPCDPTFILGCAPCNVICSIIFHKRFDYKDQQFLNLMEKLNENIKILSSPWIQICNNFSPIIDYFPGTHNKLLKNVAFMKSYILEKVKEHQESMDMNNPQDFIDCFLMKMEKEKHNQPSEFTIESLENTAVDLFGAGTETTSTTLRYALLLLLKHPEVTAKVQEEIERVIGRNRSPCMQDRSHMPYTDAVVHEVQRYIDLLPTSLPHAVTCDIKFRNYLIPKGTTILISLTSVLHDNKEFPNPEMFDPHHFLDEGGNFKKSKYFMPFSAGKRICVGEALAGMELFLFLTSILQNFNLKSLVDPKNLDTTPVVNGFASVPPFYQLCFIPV
Chain of Cytochrome P450 2D6 (P10635 whole entry): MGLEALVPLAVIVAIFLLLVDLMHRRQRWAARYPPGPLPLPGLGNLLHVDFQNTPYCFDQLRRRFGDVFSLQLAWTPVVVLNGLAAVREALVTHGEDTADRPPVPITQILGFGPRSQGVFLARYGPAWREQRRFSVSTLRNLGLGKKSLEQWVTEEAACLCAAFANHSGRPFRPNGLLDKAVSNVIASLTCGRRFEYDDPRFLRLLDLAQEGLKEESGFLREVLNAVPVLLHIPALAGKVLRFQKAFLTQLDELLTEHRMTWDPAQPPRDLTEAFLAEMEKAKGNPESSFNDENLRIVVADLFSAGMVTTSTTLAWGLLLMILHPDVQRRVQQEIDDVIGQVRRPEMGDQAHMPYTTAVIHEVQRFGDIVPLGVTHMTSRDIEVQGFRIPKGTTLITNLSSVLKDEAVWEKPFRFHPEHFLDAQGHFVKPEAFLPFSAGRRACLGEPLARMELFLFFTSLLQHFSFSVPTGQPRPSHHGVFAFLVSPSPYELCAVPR
Chain of Voltage-dependent L-type calcium channel subunit alpha-1C (Q13936 whole entry): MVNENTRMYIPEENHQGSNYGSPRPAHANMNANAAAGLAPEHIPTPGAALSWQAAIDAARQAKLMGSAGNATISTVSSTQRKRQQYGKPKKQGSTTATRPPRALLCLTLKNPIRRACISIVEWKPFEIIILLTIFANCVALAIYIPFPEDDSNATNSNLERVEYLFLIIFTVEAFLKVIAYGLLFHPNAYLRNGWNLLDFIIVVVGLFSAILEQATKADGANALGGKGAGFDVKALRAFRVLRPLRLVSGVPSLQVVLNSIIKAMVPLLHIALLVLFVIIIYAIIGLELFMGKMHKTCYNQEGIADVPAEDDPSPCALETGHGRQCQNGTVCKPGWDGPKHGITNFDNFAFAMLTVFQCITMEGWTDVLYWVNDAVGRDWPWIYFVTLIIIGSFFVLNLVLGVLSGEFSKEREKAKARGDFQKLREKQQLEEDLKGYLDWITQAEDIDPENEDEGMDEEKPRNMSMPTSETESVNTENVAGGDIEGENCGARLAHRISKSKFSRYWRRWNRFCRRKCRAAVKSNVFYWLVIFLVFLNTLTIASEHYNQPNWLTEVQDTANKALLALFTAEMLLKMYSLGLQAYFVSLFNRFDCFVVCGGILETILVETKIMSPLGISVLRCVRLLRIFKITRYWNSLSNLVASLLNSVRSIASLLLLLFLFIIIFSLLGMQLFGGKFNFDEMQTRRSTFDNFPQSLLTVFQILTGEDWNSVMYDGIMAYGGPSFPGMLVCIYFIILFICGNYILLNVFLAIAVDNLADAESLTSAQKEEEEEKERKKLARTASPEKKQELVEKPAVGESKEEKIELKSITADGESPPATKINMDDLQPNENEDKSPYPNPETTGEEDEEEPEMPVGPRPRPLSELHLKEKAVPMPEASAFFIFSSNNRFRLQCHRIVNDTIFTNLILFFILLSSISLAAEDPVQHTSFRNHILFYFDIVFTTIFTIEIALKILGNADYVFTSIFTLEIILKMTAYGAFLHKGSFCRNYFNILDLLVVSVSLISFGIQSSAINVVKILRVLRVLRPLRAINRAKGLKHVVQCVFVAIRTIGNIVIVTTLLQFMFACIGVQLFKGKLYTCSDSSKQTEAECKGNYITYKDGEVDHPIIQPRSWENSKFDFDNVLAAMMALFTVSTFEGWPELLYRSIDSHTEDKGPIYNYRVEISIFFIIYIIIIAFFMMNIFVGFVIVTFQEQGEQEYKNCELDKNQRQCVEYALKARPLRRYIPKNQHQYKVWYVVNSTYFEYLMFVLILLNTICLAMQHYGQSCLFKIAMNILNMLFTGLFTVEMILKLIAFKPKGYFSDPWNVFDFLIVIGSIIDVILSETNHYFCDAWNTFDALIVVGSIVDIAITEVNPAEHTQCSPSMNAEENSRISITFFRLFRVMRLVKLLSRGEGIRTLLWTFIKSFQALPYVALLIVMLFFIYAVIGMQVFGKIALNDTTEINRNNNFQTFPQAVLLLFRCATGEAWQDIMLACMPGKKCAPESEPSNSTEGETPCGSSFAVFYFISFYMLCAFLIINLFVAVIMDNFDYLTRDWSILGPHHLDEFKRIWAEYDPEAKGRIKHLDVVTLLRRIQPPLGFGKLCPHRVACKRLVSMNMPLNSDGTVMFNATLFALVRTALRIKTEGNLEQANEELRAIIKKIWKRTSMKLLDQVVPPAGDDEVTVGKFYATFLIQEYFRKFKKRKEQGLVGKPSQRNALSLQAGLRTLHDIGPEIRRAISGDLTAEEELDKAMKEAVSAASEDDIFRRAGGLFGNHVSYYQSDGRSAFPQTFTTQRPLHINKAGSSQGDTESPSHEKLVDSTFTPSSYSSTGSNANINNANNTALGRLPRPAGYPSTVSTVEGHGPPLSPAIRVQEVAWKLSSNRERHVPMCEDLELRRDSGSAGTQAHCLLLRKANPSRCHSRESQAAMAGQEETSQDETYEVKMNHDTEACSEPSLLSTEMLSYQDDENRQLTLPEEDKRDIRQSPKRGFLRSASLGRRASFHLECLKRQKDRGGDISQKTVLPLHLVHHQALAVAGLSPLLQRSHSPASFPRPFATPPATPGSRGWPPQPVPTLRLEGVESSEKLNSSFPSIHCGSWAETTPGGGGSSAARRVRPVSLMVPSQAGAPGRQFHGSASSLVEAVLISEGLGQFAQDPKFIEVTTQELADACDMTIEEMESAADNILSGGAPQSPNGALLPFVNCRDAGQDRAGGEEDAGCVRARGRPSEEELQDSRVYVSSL
Chain of Voltage-gated inwardly rectifying potassium channel KCNH2 (Q12809 whole entry): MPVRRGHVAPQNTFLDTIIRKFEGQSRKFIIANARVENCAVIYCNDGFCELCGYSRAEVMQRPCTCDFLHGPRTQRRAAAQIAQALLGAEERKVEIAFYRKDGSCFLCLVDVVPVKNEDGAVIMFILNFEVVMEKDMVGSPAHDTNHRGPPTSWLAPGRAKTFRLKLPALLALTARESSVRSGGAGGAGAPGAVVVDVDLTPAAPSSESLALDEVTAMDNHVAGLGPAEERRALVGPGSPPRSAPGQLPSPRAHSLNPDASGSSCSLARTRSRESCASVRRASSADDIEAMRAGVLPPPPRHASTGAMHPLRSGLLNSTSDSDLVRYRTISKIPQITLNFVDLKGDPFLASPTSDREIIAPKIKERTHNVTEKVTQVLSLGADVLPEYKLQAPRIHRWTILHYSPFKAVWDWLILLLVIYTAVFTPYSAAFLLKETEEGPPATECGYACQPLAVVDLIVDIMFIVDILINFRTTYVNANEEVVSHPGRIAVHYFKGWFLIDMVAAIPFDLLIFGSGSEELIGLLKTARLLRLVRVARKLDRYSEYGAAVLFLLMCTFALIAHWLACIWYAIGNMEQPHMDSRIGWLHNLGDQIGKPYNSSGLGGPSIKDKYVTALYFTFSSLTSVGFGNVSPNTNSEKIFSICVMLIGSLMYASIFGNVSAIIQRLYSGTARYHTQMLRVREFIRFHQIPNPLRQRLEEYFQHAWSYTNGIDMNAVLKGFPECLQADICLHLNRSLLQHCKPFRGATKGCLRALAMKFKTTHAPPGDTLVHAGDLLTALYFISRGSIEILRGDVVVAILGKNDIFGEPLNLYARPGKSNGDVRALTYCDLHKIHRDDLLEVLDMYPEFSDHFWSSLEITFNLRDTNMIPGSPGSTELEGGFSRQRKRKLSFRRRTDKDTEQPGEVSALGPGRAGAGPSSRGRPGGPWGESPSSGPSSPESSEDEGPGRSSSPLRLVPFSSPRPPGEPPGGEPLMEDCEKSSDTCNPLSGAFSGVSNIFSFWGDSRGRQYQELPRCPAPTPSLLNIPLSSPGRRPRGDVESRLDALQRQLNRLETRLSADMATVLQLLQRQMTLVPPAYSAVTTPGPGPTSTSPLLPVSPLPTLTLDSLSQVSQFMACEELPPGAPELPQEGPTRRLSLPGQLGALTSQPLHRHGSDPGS
Chain of Cytochrome P450 3A4 (P08684 whole entry): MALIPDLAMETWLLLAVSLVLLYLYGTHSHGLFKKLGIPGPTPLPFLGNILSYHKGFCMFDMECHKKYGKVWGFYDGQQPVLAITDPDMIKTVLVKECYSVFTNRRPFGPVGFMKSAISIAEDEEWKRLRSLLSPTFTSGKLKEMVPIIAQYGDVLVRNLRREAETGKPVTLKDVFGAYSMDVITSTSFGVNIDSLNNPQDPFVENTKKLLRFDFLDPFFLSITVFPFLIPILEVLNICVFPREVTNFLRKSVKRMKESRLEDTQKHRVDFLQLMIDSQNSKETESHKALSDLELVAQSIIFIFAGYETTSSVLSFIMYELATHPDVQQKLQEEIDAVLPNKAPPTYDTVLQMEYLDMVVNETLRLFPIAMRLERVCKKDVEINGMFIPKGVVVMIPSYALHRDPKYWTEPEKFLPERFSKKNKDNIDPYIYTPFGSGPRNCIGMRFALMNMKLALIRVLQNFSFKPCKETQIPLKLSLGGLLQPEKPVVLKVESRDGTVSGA

In general, IC50 refers to the midpoint of a concentration-inhibition curve. As a reminder, the Papp is a coefficient for how fast a substance crosses the barrier. A word on the Ki: it is the dissociation constant of the complex between target and ligand, obtained from inhibition or displacement. A word on the EC50: it is the midpoint of the concentration-response curve. Take `CCNC1=N[C@@H]2C[C@H](O)[C@@H](CO)O[C@@H]2S1`: the IC50 in series [1] was greater than 30 µM; in series [2] it was greater than 50 µM; in [3], greater than 50 µM; in series [4], greater than 30 µM; in series [5] it was greater than 50 µM; in [9], greater than 30 µM. Moreover, in series [6], the Papp stood at 2.6 ×10⁻⁶ cm/s. Moreover, the Ki in series [7] was greater than 10 µM. Besides, the EC50 in [8] is greater than 30 µM.

Consider `CCNC1=N[C@@H]2[C@@H](O)[C@H](O)[C@@H](C)O[C@@H]2S1`, for which the IC50 in series [1] is greater than 30 µM; in series [2], greater than 50 µM; in series [3], greater than 50 µM; in series [4], greater than 30 µM; in series [5], greater than 50 µM; in series [9], greater than 30 µM. In series [10], the Ki worked out at 0.069 µM. In addition, in series [8], the EC50 is greater than 30 µM.

With `CCNC1=N[C@@H]2[C@@H](OC)[C@H](O)[C@@H](CO)O[C@@H]2S1`, the IC50 in series [1] was greater than 30 µM; in [2] it was greater than 50 µM; in [3], greater than 50 µM; in [4], greater than 30 µM; in series [5] it was greater than 50 µM; in series [9], greater than 30 µM. For the same compound, the Ki in [10] was 0.27 µM; in [7], greater than 10 µM. The EC50 in series [8] was greater than 30 µM.

Take `CCNC1=N[C@H]2[C@H](O[C@H](CO)C[C@@H]2O)S1`: the IC50 in [1] was greater than 30 µM; in series [2], greater than 50 µM; in series [3], greater than 50 µM; in series [4] it was greater than 30 µM; in series [5] it was greater than 50 µM; in [9], greater than 30 µM. Also, the values for the inhibition constant (Ki) in series [10] and in series [7] were greater than 3 µM and greater than 10 µM, respectively. In addition, the Papp in series [6] came out at 7 ×10⁻⁶ cm/s. Besides, the EC50 in [8] was greater than 30 µM.

`CCNC1=N[C@H]2[C@H](O[C@H](CO)C(F)[C@@H]2O)S1` (stereo partly specified): the IC50 is greater than 30 µM in [1]; greater than 50 µM in series [2]; greater than 50 µM in series [3]; greater than 30 µM in series [4]; greater than 50 µM in series [5]; greater than 30 µM in [9]. Also, the Ki in series [10] is greater than 3 µM; in [7] it was greater than 10 µM. Also, the EC50 in series [8] was greater than 30 µM.

For the compound `CCNC1=N[C@@H]2[C@@H](O)[C@H](O)[C@@H](COC)O[C@@H]2S1`, the IC50 in series [1] was greater than 30 µM; in series [2], greater than 50 µM; in series [3], greater than 50 µM; in series [4], greater than 30 µM; in [5], greater than 50 µM; in series [9] it was greater than 30 µM. For the same compound, in series [10], the Ki turned out to be 0.19 µM. The EC50 in [8] is greater than 30 µM.

Regarding `CCNC1=N[C@@H]2[C@@H](O)[C@H](OC)[C@@H](CO)O[C@@H]2S1`, the IC50 was greater than 30 µM in series [1]; greater than 50 µM in series [2]; greater than 50 µM in series [3]; greater than 30 µM in series [4]; greater than 50 µM in [5]; greater than 30 µM in series [9]. The Ki in [10] is greater than 3 µM. Also, the EC50 in series [8] is greater than 30 µM.

The values are drawn from ChEMBL document CHEMBL4354805, “Discovery of MK-8719, a Potent O-GlcNAcase Inhibitor as a Potential Treatment for Tauopathies” (J Med Chem, 2019).
